Biological target: T1, human mAChR M1 (Homo sapiens, UniProt P11229)
T1 sequence (P11229 1-460): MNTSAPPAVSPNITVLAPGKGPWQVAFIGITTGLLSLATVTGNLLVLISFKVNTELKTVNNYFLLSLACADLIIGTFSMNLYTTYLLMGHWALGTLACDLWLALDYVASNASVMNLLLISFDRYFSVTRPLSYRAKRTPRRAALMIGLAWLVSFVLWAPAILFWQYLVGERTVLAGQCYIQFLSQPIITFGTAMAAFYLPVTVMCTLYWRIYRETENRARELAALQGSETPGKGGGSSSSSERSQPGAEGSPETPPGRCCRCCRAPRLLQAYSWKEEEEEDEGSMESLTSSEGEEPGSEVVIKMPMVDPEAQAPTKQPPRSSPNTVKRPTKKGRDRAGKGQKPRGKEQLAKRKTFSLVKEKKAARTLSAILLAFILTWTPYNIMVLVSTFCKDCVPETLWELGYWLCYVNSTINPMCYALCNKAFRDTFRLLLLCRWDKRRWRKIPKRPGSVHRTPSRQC
Test: mAChR M1 cell-based functional assay (calcium mobilization, PAM mode)
Details: CHO-K1 cells stably expressing hM1, calcium flux (Fluo-4); for EC50: concentration-dependent increase in the EC20 acetylcholine response; for Emax: potentiation of EC20 acetylcholine response
Source text: Chinese hamster ovary (CHO-K1) cells stably expressing rat (r)M1 were purchased from the American Type Culture Collection and cultured according to their indicated protocol. CHO cells stably expressing human (h)M2, hM3, and hM5 were described previously (Levey, et al., 1991); hM1 and hM4 cDNAs were purchased from Missouri S&T cDNA Resource; rM4 cDNA was provided by T. I. Bonner (National Institutes of Health, Bethesda, MD). rM2 and rM3 were cloned from a rat brain cDNA library and sequence verified. hM1, rM2, rM3, hM4, and rM4 cDNAs were used to stably transfect CHO-K1 cells purchased from the American Type Culture Collection using Lipofectamine2000. To make stable rM2, hM2, rM3, hM4, and rM4 cell lines for use in calcium mobilization assays, these cells also were stably transfected with a chimeric G-protein (Gqi5) (provided by B. R. Conklin, University of California, San Francisco) using Lipofectamine 2000. rM1, hM1, rM3, hM3, rM5, and hM5 cells were grown in Ham's F-12 medium containing 10% heat-inactivated fetal bovine serum (FBS), 20 mM HEPES, and 50 μg/mL G418 sulfate. rM2-Gqi5, hM2-Gqi5, and hM4-Gqi5 cells were grown in the same medium also containing 500 μg/mL Hygromycin B. Stable rM4-Gqi5 cells were grown in DMEM containing 10% heat-inactivated FBS, 20 mM HEPES, 400 μg/mL G418 sulfate, and 500 μg/mL Hygromycin B.
For high throughput measurement of agonist-evoked increases in intracellular calcium, CHO-K1 cells stably expressing muscarinic receptors were plated in growth medium lacking G418 and hygromycin at 15,000 cells/20 μL/well in Greiner 384-well black-walled, tissue culture (TC)-treated, clear-bottom plates (VWR). Cells were incubated overnight at 37° C. and 5% CO2. The next day, cells were washed using an ELX 405 (BioTek) with four washes (80 μL) of assay buffer then aspirated to 20 μL. Next, 20 μL of 16 μM Fluo-4/acetoxymethyl ester (Invitrogen, Carlsbad, CA) prepared as a 2.3 mM stock in DMSO and mixed in a 1:1 ratio with 10% (w/v) Pluronic F-127 and diluted in assay buffer was added to the wells and the cell plates were incubated for 50 min at 37° C. and 5% CO2. Dye was removed by washing with the ELX 405 (four […], washes of assay buffer) then aspirated to 20 μL. Compound master plates were formatted in an 11 point CRC format (1:3 dilutions) in 100% DMSO with a starting concentration of 10 mM using the BRAVO liquid handler (Agilent). Test compound CRCs were then transferred to daughter plates (240 nL) using the Echo acoustic plate reformatter (Labcyte, Sunnyvale, CA) and then diluted into assay buffer (40 μL) to a 2× stock using a Thermo Fisher Combi (Thermo Fisher Scientific, Waltham, MA).
Calcium flux was measured using the Functional Drug Screening System (FDSS) 6000 (Hamamatsu Corporation, Tokyo, Japan) as an increase in the fluorescent static ratio. Compounds were applied to cells (20 μL, 2×) using the automated system of the FDSS 6000 at 4 s into the 300 s protocol and the data were collected at 1 Hz. At 144 s into the 300 s protocol, 10 μL of an EC20 concentration of the muscarinic receptor agonist acetylcholine was added (5×), followed by the addition of 12 μL an EC80 concentration of acetylcholine at the 230 s time point (5×). Agonist activity was analyzed as a concentration-dependent increase in calcium mobilization upon compound addition. Emax values for agonist activity are expressed relative to the maximum for acetylcholine. Positive allosteric modulator activity was analyzed as a concentration-dependent increase in the EC20 acetylcholine response. Antagonist activity was analyzed as a concentration-dependent decrease in the EC80 acetylcholine response. Concentration-response curves were generated using a four-parameter logistical equation in XLfit curve fitting software (IDBS, Bridgewater, NJ) for Excel (Microsoft, Redmond, WA) or Prism (GraphPad Software, Inc., San Diego, CA). […]

| SMILES | EC50 | Emax |
| --- | --- | --- |
| O=C(N[C@H]1CCCC[C@@H]1O)c1cc(Cc2ccc(-n3cccn3)cc2)cc2c1OCO2 [Compound 2, N-[(1S,2S)-2-hydroxycyclohexyl]-6-[(4-pyrazol-1-ylphenyl)methyl]-1,3-benzodioxole-4-carboxamide] | 790 nM | 82% |
| O=C(NC1CC2(COC2)C1)c1cc(Cc2ccc(-n3cccn3)cc2)cc2c1OCO2 [Compound 3, N-(2-oxaspiro[3.3]heptan-6-yl)-6-[(4-pyrazol-1-ylphenyl)methyl]-1,3-benzodioxole-4-carboxamide] | – | 59% |
| O=C(N[C@H]1CCC[C@@H]1O)c1cc(Cc2ccc(-n3cccn3)cc2)cc2c1OCO2 [Compound 4, N-[(1S,2S)-2-hydroxycyclopentyl]-6-[(4-pyrazol-1-ylphenyl)methyl]-1,3-benzodioxole-4-carboxamide] | 2480 nM | 69% |
| O=C(N[C@H]1CC[C@@H]1O)c1cc(Cc2ccc(-n3cccn3)cc2)cc2c1OCO2 [Compound 5, N-[(1S,2S)-2-hydroxycyclobutyl]-6-[(4-pyrazol-1-ylphenyl)methyl]-1,3-benzodioxole-4-carboxamide] | 3670 nM | 55% |
| O=C(N[C@H]1CCCCC[C@@H]1O)c1cc(Cc2ccc(-n3cccn3)cc2)cc2c1OCO2 [Compound 6, N-[(1S,2S)-2-hydroxycycloheptyl]-6-[(4-pyrazol-1-ylphenyl)methyl]-1,3-benzodioxole-4-carboxamide] | 1040 nM | 76% |
| CC(C)(O)CNC(=O)c1cc(Cc2ccc(-n3cccn3)cc2)cc2c1OCO2 [Compound 7, N-(2-hydroxy-2-methyl-propyl)-6-[(4-pyrazol-1-ylphenyl)methyl]-1,3-benzodioxole-4-carboxamide] | – | 61% |
| CC1(C)COCCC1NC(=O)c1cc(Cc2ccc(-n3cccn3)cc2)cc2c1OCO2 (stereo not shown) [Compound 8, N-(3,3-dimethyltetrahydropyran-4-yl)-6-[(4-pyrazol-1-ylphenyl)methyl]-1,3-benzodioxole-4-carboxamide] | 7330 nM | 67% |
| Cn1ccc(-c2ccc(Cc3cc4c(c(C(=O)N[C@H]5CCCCC[C@@H]5O)c3)OCO4)cn2)n1 [Compound 10, N-[(1S,2S)-2-hydroxycycloheptyl]-6-[[6-(1-methylpyrazol-3-yl)-3-pyridyl]methyl]-1,3-benzodioxole-4-carboxamide] | 1190 nM | 74% |
| Cn1ccc(-c2ccc(Cc3cc4c(c(C(=O)N[C@H]5CCCC[C@@H]5O)c3)OCO4)cn2)n1 [Compound 11, N-[(1S,2S)-2-hydroxycyclohexyl]-6-[[6-(1-methylpyrazol-3-yl)-3-pyridyl]methyl]-1,3-benzodioxole-4-carboxamide] | 810 nM | 76% |
| Cn1ccc(-c2ccc(Cc3cc4c(c(C(=O)N[C@H]5CCC[C@@H]5O)c3)OCO4)cn2)n1 [Compound 12, N-[(1S,2S)-2-hydroxycyclopentyl]-6-[[6-(1-methylpyrazol-3-yl)-3-pyridyl]methyl]-1,3-benzodioxole-4-carboxamide] | 6440 nM | 74% |
| Cn1ccc(-c2ccc(Cc3cc4c(c(C(=O)NC5CC6(COC6)C5)c3)OCO4)cn2)n1 [Compound 14, 6-[[6-(1-methylpyrazol-3-yl)-3-pyridyl]methyl]-N-(2-oxaspiro[3.3]heptan-6-yl)-1,3-benzodioxole-4-carboxamide] | – | 57% |
| Cn1ccc(-c2ccc(Cc3cc4c(c(C(=O)NC5CCOCC5)c3)OCO4)cn2)n1 [Compound 15, 6-[[6-(1-methylpyrazol-3-yl)-3-pyridyl]methyl]-N-tetrahydropyran-4-yl-1,3-benzodioxole-4-carboxamide] | – | 49% |
| Cc1c(Cc2ccc(-n3cccn3)cc2)cc(C(=O)N[C@H]2CCOC[C@@H]2O)c2c1OCO2 [Compound 18, N-[(3R,4S)-3-hydroxytetrahydropyran-4-yl]-7-methyl-6-[(4-pyrazol-1-ylphenyl)methyl]-1,3-benzodioxole-4-carboxamide] | 260 nM | 75% |
| Cc1c(Cc2ccc(-n3cccn3)cc2)cc(C(=O)N[C@H]2CCCC[C@@H]2O)c2c1OCO2 [Compound 19, N-[(1S,2S)-2-hydroxycyclohexyl]-7-methyl-6-[(4-pyrazol-1-ylphenyl)methyl]-1,3-benzodioxole-4-carboxamide] | 420 nM | 78% |
| Cc1c(Cc2ccc(-c3ccn(C)n3)cc2)cc(C(=O)N[C@H]2CCCC[C@@H]2O)c2c1OCO2 [Compound 21, N-[(1S,2S)-2-hydroxycyclohexyl]-7-methyl-6-[[4-(1-methylpyrazol-3-yl)phenyl]methyl]-1,3-benzodioxole-4-carboxamide] | 410 nM | 80% |

The next lines start with the values.

| EC50 | Emax | SMILES |
| --- | --- | --- |
| 920 nM | 81% | O=C(N[C@H]1CCOC[C@@H]1O)c1cc(Cc2ccc(-n3cccn3)cc2)cc2c1OCO2 [Compound 1, N-[(3R,4S)-3-hydroxytetrahydropyran-4-yl]-6-[(4-pyrazol-1-ylphenyl)methyl]-1,3-benzodioxole-4-carboxamide] |
| 1420 nM | 75% | Cn1ccc(-c2ccc(Cc3cc4c(c(C(=O)N[C@H]5CCOC[C@@H]5O)c3)OCO4)cn2)n1 [Compound 9, N-[(3R,4S)-3-hydroxytetrahydropyran-4-yl]-6-[[6-(1-methylpyrazol-3-yl)-3-pyridyl]methyl]-1,3-benzodioxole-4-carboxamide] |
| – | 65% | Cn1ccc(-c2ccc(Cc3cc4c(c(C(=O)N[C@H]5CC[C@@H]5O)c3)OCO4)cn2)n1 [Compound 13, N-[(1S,2S)-2-hydroxycyclobutyl]-6-[[6-(1-methylpyrazol-3-yl)-3-pyridyl]methyl]-1,3-benzodioxole-4-carboxamide] |
| 1810 nM | 78% | Cc1nc(-c2ccc(Cc3cc4c(c(C(=O)N[C@H]5CCOC[C@@H]5O)c3)OCO4)cc2)co1 [Compound 16, N-[(3R,4S)-3-hydroxytetrahydropyran-4-yl]-6-[[4-(2-methyloxazol-4-yl)phenyl]methyl]-1,3-benzodioxole-4-carboxamide] |
| 1150 nM | 66% | Cc1nc(-c2ccc(Cc3cc4c(c(C(=O)N[C@H]5CCCC[C@@H]5O)c3)OCO4)cc2)co1 [Compound 17, N-[(1S,2S)-2-hydroxycyclohexyl]-6-[[4-(2-methyloxazol-4-yl)phenyl]methyl]-1,3-benzodioxole-4-carboxamide] |
| 330 nM | 88% | Cc1c(Cc2ccc(-c3ccn(C)n3)cc2)cc(C(=O)N[C@H]2CCOC[C@@H]2O)c2c1OCO2 [Compound 20, N-[(3R,4S)-3-hydroxytetrahydropyran-4-yl]-7-methyl-6-[[4-(1-methylpyrazol-3-yl)phenyl]methyl]-1,3-benzodioxole-4-carboxamide] |

Source: patent US12065433B2, “Positive allosteric modulators of the muscarinic acetylcholine receptor M1” (Vanderbilt University, priority 2018, dated 2024)
